The record followed here is patent publication US5196510A, “Molecular recognition units” (Cytogen Corporation, priority 1990, dated 1993).

Where two headings read alike, the source gives them in different places. Residues, ends and D or L forms follow the SMILES beside them. No end group written: not given here.

Data set [1] has as its target T1, activated platelet fibrinogen receptor (Homo sapiens, UniProt P05106+P08514).
T1 construct: Platelets were isolated by placing 7 ml of platelet-rich-plasma onto a 50 ml column of Sepharose 2-B; endogenous in cells
Kind of data set: Inhibition of binding of 125-I PAC-1 antibody to activated platelets. Conditions: inhibition of 125-I PAC-1 binding to platelets activated with PMA or ADP, 37 degrees C, 1 hr; read-out: IC-50 (μM) Binding. As for the experimental part: The ability of the fusion peptides and of peptides comprising the binding domain of the peptides, specific for the activated platelet fibrinogen receptor, to inhibit the binding of PAC-1 antibody was assessed as follows:
Platelets were isolated by placing 7 ml of platelet-rich-plasma onto a 50 ml column of Sepharose 2-B equilibrated in Walshes 1% BSA buffer (1.0 g NaCl, 0.2 g KCl, 0.2 g MgCl2, 0.45 g NaH 0.9 g HEPES, 1.0 g BSA and 1.0 g dextrose in sufficient water to make exactly 1 liter), pH 7.45. The cloudiest tubes were pooled to obtain 14 ml of platelets (approximately 300,000/μl). The peptide in Walshes 1% BSA buffer and 20,000 CpM of 125-I-pAC 1 (5 μCi/μg) was added to one ml of this in a microfuge tube. Platelets were next activated with 0.1 μM phorbol myristate acetate or 10 μM ADP at 37 degrees C. After 1 hr, platelets were pelleted at top speed in a horizontal microfuge, washed gently, and the tube bottom removed with dog nail clippers and it, supernatant and wash were counted in a […]. […] Varied levels of peptide were examined and IC-50 was determined from a graph of % inhibition versus peptide concentration.

Data set [2] is classed as in vitro ADME, human. The conditions noted are these: 37° C. As for the experimental part:
A representative peptide designated "Pac-2" of the sequence: […] was labeled with 125-Iodine via standard techniques (Iodobead) (see Markwell, 1982, Anal. Biochem. 125: 427-32). Stability of the labeled peptide, having either an unblocked or blocked amino terminal end, to proteolytic enzymes in plasma was assayed as follows: Labeled peptides were incubated in fresh citrated human platelet-poor plasma in sealed tubes at 37° C. Aliguots were removed at various times and assayed using reverse phase HPLC. Degradation was calculated by loss of the original radioactive peak on a reverse phase HPLC C-6 column using 0-60% acetonitrile in 20 mM Na phosphate, pH, 6.0. Inhibitors of proteolytic enzymes in plasma were used to identify responsible enzyme classes and included: EDTA (metalloenzymes), benzamidine (serine endoproteases), bestatin (aminopeptidases) and leupeptin ([…]).

In data set [3] the test system is thrombus induced in the jugular vein. Description: Rabbit thrombus model biodistribution and gamma camera imaging. The data set is classed as in vivo. The conditions noted are these: for localization to / uptake in the clot in gamma camera images (in words): thrombus in left jugular vein, Tc-99m labeled peptide (FIGS. 3-5). As for the experimental part: Two kg or larger white New Zealand rabbits were anesthetised and a thrombus induced in the jugular vein as follows: the jugular vein was surgically exposed, side branches tied off and a segment of about 1 inch in length was clamped off. A silk thread was introduced through the segment with both ends external. Ten units of bovine thrombin in Tris-buffered saline (TBS) pH 7.5 were added by syringe. After 10 minutes, the clamp was removed and the wound closed. After 1 hour, approximately 50 μg of a MRU conjugate which is a fusion peptide labeled with Tc-99m as described in Section 8.1, supra, was injected via the contralateral ear vein. I-125 labeled fibrinogen was subsequently injected as a control in order to assess normal blood clearance and clot localization. […] The animals were then sacrificed and the amount of Tc-99m and I-125 in various organs was assessed. A Tc-99m labeled nonspecific peptide analogue containing the RYYD sequence served as a control.

In another data set the target is platelet aggregation (Homo sapiens, UniProt P05106+P08514). Description: Inhibition of platelet aggregation (Payton Aggregometer, ADP). The data set is classed as cell-based. As to the method: The ability of the fusion peptides and of peptides comprising the binding domain of the fusion peptides to inhibit platelet aggregation was assessed as follows:
[…], human plasma was prepared by centrifugation of citrated human plasma at 900 rpm, Sorvall Rc-3, for 20 minutes at room temperature. 0.5 mL of the platelet solution was placed in the cuvette of a Payton Aggregometer, followed by 50 μL of a solution containing various concentrations, up to 200 μM, of the peptide being assayed. After 1 minute, 5 μL of 10 mM ADP in water was added. The aggregation rate was assessed by a change in the slope of the absorbance curve.

T1 sequence (P08514 32-887 limits assumed): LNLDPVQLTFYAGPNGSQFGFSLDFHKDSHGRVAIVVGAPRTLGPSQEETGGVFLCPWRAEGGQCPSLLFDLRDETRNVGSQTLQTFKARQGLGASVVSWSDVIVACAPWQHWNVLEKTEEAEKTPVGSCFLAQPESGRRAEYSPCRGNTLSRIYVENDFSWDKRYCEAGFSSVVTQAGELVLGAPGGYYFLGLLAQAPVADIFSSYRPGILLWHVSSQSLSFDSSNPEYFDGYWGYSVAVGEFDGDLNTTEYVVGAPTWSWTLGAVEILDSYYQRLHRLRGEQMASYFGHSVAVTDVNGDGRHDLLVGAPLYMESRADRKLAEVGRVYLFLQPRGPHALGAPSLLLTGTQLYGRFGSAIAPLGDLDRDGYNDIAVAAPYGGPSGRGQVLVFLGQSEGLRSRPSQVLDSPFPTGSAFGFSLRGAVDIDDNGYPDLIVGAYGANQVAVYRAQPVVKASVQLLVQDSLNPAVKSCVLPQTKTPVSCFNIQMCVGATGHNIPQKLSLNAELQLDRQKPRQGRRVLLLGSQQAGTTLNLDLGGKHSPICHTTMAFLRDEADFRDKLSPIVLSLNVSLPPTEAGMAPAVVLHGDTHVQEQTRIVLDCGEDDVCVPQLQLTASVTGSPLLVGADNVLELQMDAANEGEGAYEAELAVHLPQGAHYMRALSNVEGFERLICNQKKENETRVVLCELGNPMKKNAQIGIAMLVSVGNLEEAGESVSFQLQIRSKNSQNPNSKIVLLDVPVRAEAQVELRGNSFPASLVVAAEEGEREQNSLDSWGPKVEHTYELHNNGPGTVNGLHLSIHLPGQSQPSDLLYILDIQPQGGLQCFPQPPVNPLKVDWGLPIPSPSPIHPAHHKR
T1 sequence (P08514 891-1039 partner limits assumed): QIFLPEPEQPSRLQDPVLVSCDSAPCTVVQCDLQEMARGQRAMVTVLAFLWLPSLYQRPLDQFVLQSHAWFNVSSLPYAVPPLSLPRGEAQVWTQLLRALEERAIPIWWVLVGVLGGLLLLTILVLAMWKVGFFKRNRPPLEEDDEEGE
T1 sequence (P05106 27-788): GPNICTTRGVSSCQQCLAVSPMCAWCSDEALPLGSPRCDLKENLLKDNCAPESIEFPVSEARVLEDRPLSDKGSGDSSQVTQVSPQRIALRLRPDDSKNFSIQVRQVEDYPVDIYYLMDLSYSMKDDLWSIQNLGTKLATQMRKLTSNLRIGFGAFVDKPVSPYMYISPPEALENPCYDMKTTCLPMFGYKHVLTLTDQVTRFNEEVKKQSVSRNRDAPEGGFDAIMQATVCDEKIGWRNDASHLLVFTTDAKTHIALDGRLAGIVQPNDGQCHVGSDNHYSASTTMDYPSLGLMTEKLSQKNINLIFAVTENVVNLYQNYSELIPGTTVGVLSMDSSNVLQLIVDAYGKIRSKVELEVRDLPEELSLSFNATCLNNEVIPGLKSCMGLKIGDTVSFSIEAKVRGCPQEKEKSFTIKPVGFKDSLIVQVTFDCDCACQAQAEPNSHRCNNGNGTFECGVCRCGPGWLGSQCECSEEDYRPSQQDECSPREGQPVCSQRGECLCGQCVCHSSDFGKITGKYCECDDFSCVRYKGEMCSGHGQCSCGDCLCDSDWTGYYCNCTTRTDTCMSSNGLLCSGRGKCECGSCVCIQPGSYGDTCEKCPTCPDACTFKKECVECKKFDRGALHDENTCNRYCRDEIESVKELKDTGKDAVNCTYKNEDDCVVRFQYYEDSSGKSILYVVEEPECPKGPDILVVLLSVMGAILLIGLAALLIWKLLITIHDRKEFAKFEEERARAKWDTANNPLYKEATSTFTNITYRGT
platelet aggregation, sequence (P08514 32-1039): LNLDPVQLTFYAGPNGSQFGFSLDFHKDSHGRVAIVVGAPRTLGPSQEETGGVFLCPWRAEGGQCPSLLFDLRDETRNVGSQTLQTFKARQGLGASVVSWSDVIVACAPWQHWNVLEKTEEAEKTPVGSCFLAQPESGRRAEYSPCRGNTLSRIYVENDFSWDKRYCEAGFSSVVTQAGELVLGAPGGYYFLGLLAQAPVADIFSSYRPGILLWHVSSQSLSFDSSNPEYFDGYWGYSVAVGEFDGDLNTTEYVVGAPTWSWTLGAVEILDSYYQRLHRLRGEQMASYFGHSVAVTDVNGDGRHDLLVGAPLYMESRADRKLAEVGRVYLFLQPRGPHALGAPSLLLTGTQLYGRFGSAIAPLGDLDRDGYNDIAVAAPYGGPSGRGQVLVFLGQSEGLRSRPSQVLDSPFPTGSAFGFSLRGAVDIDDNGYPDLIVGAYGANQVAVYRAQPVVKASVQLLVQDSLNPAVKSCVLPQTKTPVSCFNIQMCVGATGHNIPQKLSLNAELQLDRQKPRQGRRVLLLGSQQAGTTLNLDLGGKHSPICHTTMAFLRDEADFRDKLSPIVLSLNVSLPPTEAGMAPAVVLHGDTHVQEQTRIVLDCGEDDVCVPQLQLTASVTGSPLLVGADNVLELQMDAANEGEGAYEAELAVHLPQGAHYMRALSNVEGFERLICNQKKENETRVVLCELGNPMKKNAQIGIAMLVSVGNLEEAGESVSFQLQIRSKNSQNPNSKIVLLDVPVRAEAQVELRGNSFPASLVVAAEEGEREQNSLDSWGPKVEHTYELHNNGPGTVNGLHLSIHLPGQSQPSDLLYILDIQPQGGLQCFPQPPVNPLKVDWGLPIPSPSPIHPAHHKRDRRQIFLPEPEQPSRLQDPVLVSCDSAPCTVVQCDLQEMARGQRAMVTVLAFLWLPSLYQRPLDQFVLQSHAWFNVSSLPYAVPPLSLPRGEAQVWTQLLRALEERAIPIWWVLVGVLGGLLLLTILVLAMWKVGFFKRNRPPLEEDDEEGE
platelet aggregation, sequence (P05106 27-788): as the sequence (P05106 27-788) above

Turning to ARRSPSYYRGDAGPYYAMDY, the IC50 in data set [1] was determined as 10 µM. For acARRSPSYYRGDAGPYYAMDYKCTCCA-a [PAC-2], the “Half-Life” value was found to be 8.5 min in data set [2] (inhibitor 1 mM Bestatin, human platelet-poor plasma) and 2.1 min in data set [2] (no inhibitor, 125-I labeled peptide in citrated human platelet-poor plasma). Turning to `CC(=O)N[C@@H](CO)C(=O)N[C@@H](Cc1ccc(O)cc1)C(=O)NCC(=O)N[C@@H](CCCNC(=N)N)C(=O)NCC(=O)N[C@@H](CC(=O)O)C(=O)N[C@H](C(=O)N[C@@H](CCCNC(=N)N)C(=O)NCC(=O)N[C@@H](CC(=O)O)C(=O)N[C@@H](Cc1ccccc1)C(=O)N[C@@H](CCCCN)C(=O)N[C@@H](CS)C(=O)N[C@H](C(=O)N[C@@H](CS)C(=O)N[C@@H](CS)C(=O)N[C@@H](C)C(N)=O)[C@@H](C)O)C(C)C` [PAC-8] (Ac-SYGRGDVRGDFKCTCCA-NH2), the “time after injection at which the clot is imaged” value in data set [3] (gamma camera) is at most 18 min. In addition, in data set [3] (gamma camera (FIG. 3D)), the “persistence of the clot image” value was at least 4 h. The “localization to / uptake in the clot in gamma camera images (in words)” value (“localization to / uptake in the clot” for short) in data set [3] was “localizes to and images the clot”. Regarding acARRSPSYYRYYDAGPYYAMDYKCTCCA-a [PAC-3], the “inhibition of platelet aggregation and/or PAC-1 binding (in words)” value at platelet aggregation is “lack of platelet inhibition”. Besides, the “localization to / uptake in the clot” value in data set [3] is given as “no uptake in the region of the clot”. Take ARRSPSYYRYDAGPYYAMDY: the IC50 in data set [1] was determined as 90 µM. As for `CC(=O)N[C@@H](CCCCN)C(=O)N[C@@H](CS)C(=O)N[C@H](C(=O)N[C@@H](CS)C(=O)N[C@@H](CS)C(=O)N[C@@H](C)C(=O)N1CCC[C@H]1C(=O)N[C@@H](CO)C(=O)N[C@@H](Cc1ccc(O)cc1)C(=O)N[C@@H](Cc1ccc(O)cc1)C(=O)N[C@@H](CCCNC(=N)N)C(=O)NCC(=O)N[C@@H](CC(=O)O)C(=O)NCC(=O)N[C@@H](C)C(=O)N1CCC[C@H]1C(=O)N[C@@H](CO)C(=O)N[C@@H](Cc1ccc(O)cc1)C(=O)N[C@@H](Cc1ccc(O)cc1)C(=O)N[C@@H](CCCNC(=N)N)C(=O)NCC(=O)N[C@@H](CC(=O)O)C(=O)NCC(=O)N[C@@H](C)C(=O)N1CCC[C@H]1C(=O)N[C@@H](CO)C(=O)N[C@@H](Cc1ccc(O)cc1)C(=O)N[C@@H](Cc1ccc(O)cc1)C(=O)N[C@@H](CCCNC(=N)N)C(=O)NCC(=O)N[C@@H](CC(=O)O)C(=O)N[C@@H](C)C(N)=O)[C@@H](C)O` [PAC-15] (Ac-KCTCCAPSYYRGDGAPSYYRGDGAPSYYRGDA-NH2), in data set [3], the “localization to / uptake in the clot” value was “clearly localize and permit imaging of the clot”.

As to `CC(=O)N1CCC[C@H]1C(=O)N[C@@H](CO)C(=O)N[C@@H](Cc1ccc(O)cc1)C(=O)N[C@@H](Cc1ccc(O)cc1)C(=O)N[C@@H](CCCNC(=N)N)C(=O)NCC(=O)N[C@@H](CC(=O)O)C(=O)NCC(=O)N[C@@H](C)C(=O)N1CCC[C@H]1C(=O)N[C@@H](CO)C(=O)N[C@@H](Cc1ccc(O)cc1)C(=O)N[C@@H](Cc1ccc(O)cc1)C(=O)N[C@@H](CCCNC(=N)N)C(=O)NCC(=O)N[C@@H](CC(=O)O)C(=O)NCC(=O)N[C@@H](C)C(=O)N1CCC[C@H]1C(=O)N[C@@H](CO)C(=O)N[C@@H](Cc1ccc(O)cc1)C(=O)N[C@@H](Cc1ccc(O)cc1)C(=O)N[C@@H](CCCNC(=N)N)C(=O)NCC(=O)N[C@@H](CC(=O)O)C(=O)N[C@@H](C)C(=O)N[C@@H](CCCCN)C(=O)N[C@@H](CS)C(=O)N[C@H](C(=O)N[C@@H](CS)C(=O)N[C@@H](CS)C(=O)N[C@@H](C)C(N)=O)[C@@H](C)O` [PAC-16] (Ac-PSYYRGDGAPSYYRGDGAPSYYRGDAKCTCCA-NH2), the “localization to / uptake in the clot” value in data set [3] is “clearly localize and permit imaging of the clot”.
